Test results published in paper PMC4176827 (Molecular and biochemical parasitology, 2014).

Columns and labels:
[1] = target: T1, CpDHS (Cryptosporidium parvum, UniProt A3FQA5); assay: radiometric deoxyhypusine synthase assay; format: biochemical; settings: read-out: % inhibition at 1 μM
T1 sequence (A3FQA5 1-362): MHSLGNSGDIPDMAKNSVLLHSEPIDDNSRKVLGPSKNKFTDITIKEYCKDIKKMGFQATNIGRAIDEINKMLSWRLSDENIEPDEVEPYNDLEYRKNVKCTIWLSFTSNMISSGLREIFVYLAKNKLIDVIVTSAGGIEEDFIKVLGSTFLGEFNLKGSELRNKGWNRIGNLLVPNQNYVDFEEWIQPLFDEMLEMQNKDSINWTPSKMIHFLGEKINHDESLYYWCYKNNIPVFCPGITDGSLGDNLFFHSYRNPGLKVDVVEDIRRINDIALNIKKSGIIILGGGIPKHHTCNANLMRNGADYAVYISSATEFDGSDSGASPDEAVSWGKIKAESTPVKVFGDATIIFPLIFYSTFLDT

[2] = target: T1, CpDHS; assay: fluorescence of enzyme-bound NADH; format: biochemical; settings: 100 µM spermidine, no eIF5A, 0.2 M glycine buffer pH 9.2

| SMILES | inhibition at 1 µM [1] | fluorescence of enzyme-bound NADH (excitation 340 nm, emission 441 nm) [2] |
| --- | --- | --- |
| N=C(N)NCCCCCCCN [GC7, N^1-guanyl-1,7-diaminoheptane] | > 90% | – |
| NC(=O)c1ccc[n+]([C@@H]2O[C@H](COP(=O)(O)OP(=O)(O)OC[C@H]3O[C@@H](n4cnc5c(N)ncnc54)[C@H](O)[C@@H]3O)[C@@H](O)[C@H]2O)c1 [NAD^+] | – | both spermidine and NAD^+ are required for NADH fluorescence |
